In US20150174108A1, “METHOD OF WEIGHT REDUCTION” (priority 2012, published 2015):
“Also recorded” adds a separate entry of the source.

Columns and labels:
Assay type in all cases: in vivo, human
[1] = 24 week randomised placebo-controlled double-blind clinical trial: body weight; details: for ΔBW Week 24, Mean ± SD / ΔBW Week 24, Median (range): change from baseline (Day 0) to Week 24; for body weight change over the study: metformin-treated patients who received placebo; for BW Week 24, Mean ± SD / BW Week 24, Median (range): type 2 diabetes patients
Protocol: (§1) The safety and efficacy of methazolamide (40 mg administered twice daily) as a potential treatment for type 2 diabetes were evaluated in a 24 week, randomised, placebo-controlled double-blind clinical trial. The primary efficacy endpoint for the clinical trial was a reduction in HbA1c (ΔHbA1c) from baseline with methazolamide, relative to placebo, after 24 weeks of treatment. Secondary efficacy endpoints included reduction in body weight and improvements in cardiovascular measures such as blood pressure. The primary safety measurement was the effect of methazolamide, compared to placebo, on venous blood gas parameters; a measure of acidosis.
(§2) The clinical trial initially enrolled type 2 diabetes patients who were not treated with any anti-diabetic agent prior to entry into the trial (NAIVE) The trial was expanded to include participants who had been treated with metformin for at least 3 months and were on a stable metformin dose for at least 8 weeks prior to entering the trial (MET). The metformin dose was not altered throughout the trial.
(§3) Participants randomized into the clinical trial were administered either daily doses of methazolamide (40 mg b.i.d.) or placebo for 24 weeks. Methazolamide was taken as 1×30 mg capsule and 1×10 mg capsule per dose at breakfast and dinner. Placebo (microcrystalline cellulose) was administered in identical presentation. After an initial randomization visit to the clinic (Day 0), participants returned to the clinic at weeks 1, 2, 4, 8, 12, 18 and 24 for physical examinations, laboratory analyses, body composition measures, evaluation of glycemic parameters (fasting blood glucose, fasting insulin, HbA1c) and measurement of venous blood gas analysis.
(§4) Mean changes in body weight over time are depicted in FIG. 1.
Thus an unexpected and selective effect of methazolamide on the metformin-treated patients was observed.

[2] = 24 week randomised placebo-controlled double-blind clinical trial: HbA1c; details: for ΔHbA1c Week 24, Mean ± SD / ΔHbA1c Week 24, Median (range): change from baseline (Day 0) to Week 24; for HbA1c Week 24, Mean ± SD / HbA1c Week 24, Median (range): type 2 diabetes patients, methazolamide 40 mg b.i.d.
Protocol: as §1, §2, §3, §4

[3] = 24 week randomised placebo-controlled double-blind clinical trial: body mass index; details: for ΔBMI Week 24, Mean ± SD / ΔBMI Week 24, Median (range): change from baseline (Day 0) to Week 24; for BMI Week 24, Mean ± SD / BMI Week 24, Median (range): type 2 diabetes patients
Protocol: as §1, §2, §3, §4

[4] = difference to the matching placebo group, Week 24

Structure (SMILES) | ΔBW Week 24, Mean ± SD [1] [kg] | ΔBW Week 24, Median (range) [1] | body weight change over the study ([1]; 24 weeks) | body weight change over the study ([1]; 24 weeks, listed as metformin and placebo) | BW Week 24, Mean ± SD [1] [kg] | BW Week 24, Median (range) [1] | ΔHbA1c Week 24, Mean ± SD [2] [%] | ΔHbA1c Week 24, Median (range) [2] | HbA1c Week 24, Mean ± SD [2] [%] | HbA1c Week 24, Median (range) [2] | ΔBMI Week 24, Mean ± SD [3] [kg/m^2] | ΔBMI Week 24, Median (range) [3] | BMI Week 24, Mean ± SD [3] [kg/m^2] | BMI Week 24, Median (range) [3] | effect on body weight versus placebo ([1]; Naïve patients not using metformin, 24 weeks) | ΔBW Week 24, MTZ − Placebo [1, 4] | average body weight lost over the 24 week period ([1]; metformin-treated patients further treated with methazolamide) [kg] | body weight lost as share of starting body weight ([1]; metformin-treated patients further treated with methazolamide, 24 weeks) [%] | ΔHbA1c Week 24, MTZ − Placebo [2, 4] [%] | ΔBMI Week 24, MTZ − Placebo [3, 4]
CN(C)C(=N)NC(=N)N [Placebo + Met, metformin] | -0.3 ± 1.7 | −0.5 (−2.8, +3.9) kg | largely stable body weight | did not significantly change | 90.3 ± 15.9 | 87.6 (68.5, 133.6) kg | −0.04 ± 0.71 | −0.2 (−0.9, +1.4) % | 7.50 ± 0.84 | 7.3 (6.6, 9.8) % | −0.06 ± 0.58 | −0.2 (−0.8, +1.5) kg/m^2 | 29.7 ± 4.7 | 29.1 (23.6-39.5) kg/m^2 |  |  |  |  |  | 
CC(=O)/N=c1/sc(S(N)(=O)=O)nn1C [methazolamide] | -2.3 ± 2.4 | −1.8 (−9.8, +1.3) kg |  |  | 90.7 ± 14.0 | 95.3 (63.3, 106.0) kg | −0.26 ± 0.72 | −0.3 (−2.1, +0.8) % | 6.88 ± 0.63 | 7.0 (6.1, 8.0) % | −0.77 ± 0.79 | −0.6 (−3.1, +0.5) kg/m^2 | 31.5 ± 5.1 | 32.0 (24.7-39.0) kg/m^2 | no differences were observed; also recorded: No such additional effect | +0.8 kg | 2.2 | 2 | −0.1 | +0.4 kg/m^2
